From US20220257552A1, “METHODS OF PRESCREENING AND TREATING BREAST CANCERS WITH SELECTIVE ANDROGEN RECEPTOR MODULATORS” (priority 2021, published 2022)

Molecular target: T1, ER-α (Rattus norvegicus, UniProt P06211)
T1 construct: expressed in transfected cells
Assay: ER-α transactivation in HEK-293 cells
Type: cell-based
Description: Rat GR, MR, PR, ER-α and ER-β were individually cloned into a pCR3.1 vector backbone. Sequencing was performed to verify the absence of any mutations. HEK-293 cells were plated at 90,000 cells per well of a 24 well plate in Dulbecco's Minimal Essential Media supplemented with 5% charcoal-stripped FBS. […] Luciferase assays were performed 48 h after transfection. Transcriptional activation values are represented as firefly luciferase normalized to renilla luciferase.

T1 sequence (P06211 whole entry): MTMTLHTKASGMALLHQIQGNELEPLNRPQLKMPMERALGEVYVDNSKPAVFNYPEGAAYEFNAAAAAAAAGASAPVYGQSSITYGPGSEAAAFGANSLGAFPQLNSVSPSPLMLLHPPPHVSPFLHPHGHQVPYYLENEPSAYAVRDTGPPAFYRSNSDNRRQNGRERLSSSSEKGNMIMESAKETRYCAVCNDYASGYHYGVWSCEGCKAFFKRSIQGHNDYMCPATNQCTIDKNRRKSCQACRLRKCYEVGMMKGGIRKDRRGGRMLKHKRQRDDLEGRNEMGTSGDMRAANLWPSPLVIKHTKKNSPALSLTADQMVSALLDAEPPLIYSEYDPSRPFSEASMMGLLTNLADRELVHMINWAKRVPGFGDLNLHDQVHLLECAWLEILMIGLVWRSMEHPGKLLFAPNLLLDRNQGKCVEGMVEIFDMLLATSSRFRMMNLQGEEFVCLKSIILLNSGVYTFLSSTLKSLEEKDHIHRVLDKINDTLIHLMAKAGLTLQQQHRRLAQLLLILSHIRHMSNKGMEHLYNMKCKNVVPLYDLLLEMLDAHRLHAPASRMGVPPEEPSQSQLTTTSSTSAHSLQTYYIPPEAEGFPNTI

With C[C@](O)(COc1ccc(C#N)cc1)C(=O)Nc1ccc(C#N)c(Cl)c1 [Formula VIII, (S)—N-(3-chloro-4-cyanophenyl)-3-(4-cyanophenoxy)-2-hydroxy-2-methylpropanamide] the “17β-estradiol-induced ER-α activity, antagonist mode” value (co-incubation) was “failed to alter” and the “ERα-mediated transactivation, agonist mode” value (highest tested concentration 1 μM) was “failed to activate”.
